One test deals with recombinant USP30 (amino acids 57-517 of the human sequence) (Homo sapiens (Human), UniProt Q70CQ3). Kind of test: In vitro USP30 biochemical assay (Ubiquitin-Rhodamine substrate). The following applies: 1.5 nM recombinant USP30, 25 nM Ubiquitin-Rhodamine, fluorescence. The method, then:
In vitro biochemical assay to establish the potency of compounds for USP30 inhibition: a 384-well plate assay using a fluorophore tagged substrate of USP30 was used for in vitro screening of compounds. Each compound was tested at
10 different concentrations (0.5 to 10,000 nM) in duplicate wells. […] Data were analyzed using Graph Pad Prism software with a four-parameter (floating slope) fit to log concentration data to determine IC50s.
recombinant USP30 (amino acids 57-517 of the human sequence), sequence (Q70CQ3 57-517): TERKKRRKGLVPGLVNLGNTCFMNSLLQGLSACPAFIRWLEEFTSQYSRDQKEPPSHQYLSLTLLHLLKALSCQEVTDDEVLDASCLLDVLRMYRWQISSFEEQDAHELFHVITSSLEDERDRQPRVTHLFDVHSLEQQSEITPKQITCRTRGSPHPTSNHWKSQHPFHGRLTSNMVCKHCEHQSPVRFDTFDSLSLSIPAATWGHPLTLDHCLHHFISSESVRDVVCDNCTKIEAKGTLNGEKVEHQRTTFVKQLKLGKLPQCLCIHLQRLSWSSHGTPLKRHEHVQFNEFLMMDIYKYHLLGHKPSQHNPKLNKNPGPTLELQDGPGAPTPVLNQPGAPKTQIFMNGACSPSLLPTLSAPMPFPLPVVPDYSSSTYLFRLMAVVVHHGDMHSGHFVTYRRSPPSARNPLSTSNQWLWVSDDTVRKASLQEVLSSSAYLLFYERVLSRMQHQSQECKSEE
In general, IC50 refers to the concentration that gives 50% inhibition. Consider `CC(C)(C)NS(=O)(=O)c1ccc(NC(=O)[C@H](Cc2ccccc2)NC(=O)c2ccc3nc[nH]c3c2)cc1` [Compound I-194], for which the IC50 fell in the range of 1 to 10 µM.
The same measure, in the same setting: next, `CC(C)(C)NS(=O)(=O)c1cccc2c(NC(=O)[C@H](Cc3ccccc3)NC(=O)N3CCOCC3)cccc12` [Compound I-195]: 0.05 to 1 µM; `CC(C)(C)NS(=O)(=O)c1cccc2c(NC(=O)[C@H](Cc3ccccc3)NC(=O)N3CC4(COC4)C3)cccc12` [Compound I-197]: 0.05 to 1 µM; `CC(C)C[C@H](NC(=O)c1ccc(F)cc1)C(=O)Nc1ccc(S(=O)(=O)NC(C)(C)C(F)(F)F)nc1` [Compound I-203]: 0.05 to 1 µM.
On the same count and under the same terms, next, `CC(C)C[C@H](NC(=O)c1ccc(F)cn1)C(=O)Nc1ccc(S(=O)(=O)NC(C)(C)C(F)(F)F)cc1` [Compound I-204]: 0.05 to 1 µM; `CC(C)[C@H](NC(=O)c1ccc(F)cc1)C(=O)Nc1ccc(S(=O)(=O)NC(C)(C)C)cc1` [Compound I-206]: 0.05 to 1 µM.
Still for that read-out and setting: next, `CC(C)(NS(=O)(=O)c1ccc(NC(=O)[C@H](CC2CCOCC2)NC(=O)c2ccc(F)cn2)cc1)C(F)(F)F` [Compound I-207]: 0.05 to 1 µM; `CC(C)C[C@H](NC(=O)c1ccc(F)cn1)C(=O)Nc1ccc(S(=O)(=O)NC(C)(C)C(F)(F)F)nc1` [Compound I-210]: 0.05 to 1 µM.
As for `CC(C)(NS(=O)(=O)c1ccc(NC(=O)[C@H](Cc2ccccn2)NC(=O)c2ccc(F)cc2)cc1)C(F)(F)F` [Compound I-212], the IC50 fell in the range of 0.05 to 1 µM.
With `CC(C)(CF)NS(=O)(=O)c1ccc(NC(=O)[C@H](Cc2ccccn2)NC(=O)c2ccc(F)cc2)cc1` [Compound I-213], the IC50 was 0.05 to 1 µM.
Same read-out and setting: next, `CC(C)(C)NS(=O)(=O)c1ccc(NC(=O)[C@H](CC2CCN(C(=O)OCc3ccccc3)CC2)NC(=O)N2CCOCC2)cc1` [Compound I-214]: 0.05 to 1 µM; `CC(C)(C)NS(=O)(=O)c1ccc(NC(=O)[C@H](CC2CCNCC2)NC(=O)N2CCOCC2)cc1` [Compound I-215]: 1 to 10 µM.
The same measure, in the same setting: next, `CC(C)C[C@H](NC(=O)N1CCOCC1)C(=O)Nc1cccc2c(S(=O)(=O)NC(C)(C)C)cccc12` [Compound I-216]: 1 to 10 µM.
On the same count and under the same terms, next, `CN1CCC(C[C@H](NC(=O)N2CCOCC2)C(=O)Nc2ccc(S(=O)(=O)NC(C)(C)C)cc2)CC1` [Compound I-217]: 1 to 10 µM; `CC(C)C[C@H](NC(=O)c1ccc(F)cc1)C(=O)Nc1ccc(S(=O)(=O)NC(C)(C)C(F)(F)F)cc1` [Compound I-221]: 0.05 to 1 µM.
In the case of `O=C(N[C@@H](Cc1ccccc1)C(=O)Nc1ccc(S(=O)(=O)NCc2ccncn2)cc1)c1ccc(F)cc1` [Compound I-222], the half-inhibitory concentration (IC50) lay in the range of 0.05 to 1 µM.
On to `O=C(N[C@@H](Cc1ccccc1)C(=O)Nc1ccc(S(=O)(=O)NCc2cnccn2)cc1)c1ccc(F)cc1` [Compound I-223], for which the IC50 fell in the range of 0.05 to 1 µM.
Still for that read-out and setting: then `Cn1nccc1CNS(=O)(=O)c1ccc(NC(=O)[C@H](CC2CCNCC2)NC(=O)c2ccc(F)cc2)cc1` [Compound I-224], with 0.05 to 1 µM.
Consider `CC(C)C[C@H](NC(=O)c1ccc(F)cc1)C(=O)Nc1ccc(S(=O)(=O)NCc2ccnn2C)cc1` [Compound I-225], for which the IC50 is 0.05 to 1 µM.
Same read-out and setting: then `O=C(N[C@@H](Cc1ccccc1)C(=O)Nc1ccc(S(=O)(=O)NCc2ccn[nH]2)cc1)c1ccc(F)cc1` [Compound I-226], with 0.05 to 1 µM; and `O=C(N[C@@H](Cc1ccccc1)C(=O)Nc1ccc(S(=O)(=O)NCc2ncccn2)cc1)c1ccc(F)cc1` [Compound I-228], with 0.05 to 1 µM; and `CN(C(=O)c1ccc(F)cc1)[C@@H](Cc1ccccc1)C(=O)Nc1ccc(S(=O)(=O)NCc2ccnn2C)cc1` [Compound I-229], with 1 to 10 µM.
`CC(C)C[C@H](NC(=O)c1ccc(F)cc1)C(=O)Nc1ccc(S(=O)(=O)NC(C)(C)CF)cc1` [Compound I-230]: the IC50 is 0.05 to 1 µM.
As for `CN1CCC(C[C@H](NC(=O)c2ccc(F)cc2)C(=O)Nc2ccc(S(=O)(=O)NCc3ccnn3C)cc2)CC1` [Compound I-231], the IC50 lay within 0.05 to 1 µM.
The same measure, in the same setting: then `O=C(N[C@@H](Cc1ccccc1)C(=O)Nc1ccc(S(=O)(=O)NCc2nnc[nH]2)cc1)c1ccc(F)cc1` [Compound I-232], with 1 to 10 µM; and `CC(C)(C)NS(=O)(=O)c1ccc(NC(=O)[C@H](Cc2ccccc2)NC(=O)C2CCN(C#N)CC2)cc1` [Compound I-233], with 0.05 to 1 µM.
The same measure, in the same setting: next, `CN1CCC(C[C@H](NC(=O)c2ccc(F)cc2)[C@@H](O)CNc2ccc(S(=O)(=O)NC(C)(C)C)cc2)CC1` [Compound I-234]: 1 to 10 µM.
Same read-out and setting: then `CC(C)(C)NS(=O)(=O)c1ccc(NC[C@H](O)[C@H](CC2CCNCC2)NC(=O)c2ccc(F)cc2)cc1` [Compound I-235], with 1 to 10 µM; and `CC(C)(C)NS(=O)(=O)c1ccc(NC[C@H](O)[C@H](Cc2ccncc2)NC(=O)c2ccc(F)cc2)cc1` [Compound I-236], with 0.05 to 1 µM; and `Cn1nccc1CCNS(=O)(=O)c1ccc(NC(=O)[C@H](Cc2ccccc2)NC(=O)c2ccc(F)cc2)cc1` [Compound I-237], with 0.05 to 1 µM.
Consider `O=C(N[C@@H](Cc1ccccc1)C(=O)Nc1ccc(S(=O)(=O)NCc2cnc[nH]2)cc1)c1ccc(F)cc1` [Compound I-239], for which the IC50 fell in the range of 0.05 to 1 µM.
For the compound `CN(C)CC[C@H](NC(=O)c1ccc(F)cc1)C(=O)Nc1ccc(S(=O)(=O)NC(C)(C)C)cc1` [Compound I-240], the half-maximal inhibitory concentration (IC50) is 0.05 to 1 µM.
In the case of `N#CN1CC(NC(=O)[C@H](Cc2ccccc2)NC(=O)c2ccc(F)cc2)C1` [Compound I-241], the IC50 fell in the range of 0.05 to 1 µM.
On the same count and under the same terms, next, `CC(C)(C)NS(=O)(=O)c1ccc(NC(=O)[C@H](CCO)NC(=O)c2ccc(F)cc2)cc1` [Compound I-242]: 0.05 to 1 µM; `CC(C)(C)NS(=O)(=O)c1ccc(NC(=O)[C@H](CC#N)NC(=O)c2ccc(F)cc2)cc1` [Compound I-243]: 0.05 to 1 µM.
Same read-out and setting: next, `CC(C)C[C@H](NC(=O)c1ccccc1)C(=O)NC1CN(C(=O)OCc2ccccc2)C1` [Compound I-247]: 1 to 10 µM.
Same read-out and setting: next, `CC(C)(C)NS(=O)(=O)c1ccc(NC(=O)[C@@H]2C[C@@H](C3CCCCC3)CN2C(=O)c2ccc(F)cc2)cc1` [Compound I-253]: 0.05 to 1 µM.
As for `CC(C)(CO)NS(=O)(=O)c1ccc(NC(=O)[C@@H]2C[C@@H](C3CCCCC3)CN2C(=O)c2ccc(F)cc2)cc1` [Compound I-254], the IC50 was in the range of 1 to 10 µM.
Same read-out and setting: next, `COc1cc(NC(=O)[C@@H]2C[C@@H](C3CCCCC3)CN2C(=O)c2ccc(F)cc2)cnc1S(=O)(=O)NC(C)(C)C` [Compound I-255]: 1 to 10 µM; `COc1cc(NC(=O)[C@@H]2C[C@@H](C3CCCCC3)CN2C(=O)c2ccc(F)cc2)ccc1S(=O)(=O)NC(C)(C)C` [Compound I-257]: 0.05 to 1 µM; `CC(C)(CO)NS(=O)(=O)c1ccc(NC(=O)[C@@H]2C[C@@H](C3CCCCC3)CN2C(=O)c2ccc(F)cc2)cn1` [Compound I-258]: 1 to 10 µM.
On the same count and under the same terms, then `COc1cc(NC(=O)[C@@H]2C[C@@H](C3CCCCC3)CN2C(=O)c2ccc(F)cc2)ccc1S(=O)(=O)NC(C)(C)CO` [Compound I-259], with 0.05 to 1 µM; and `CC(C)(C)NS(=O)(=O)c1ccc(NC(=O)[C@@H]2C[C@@H](C3CCCCC3)CN2C(=O)c2ccc(F)cc2)cn1` [Compound I-260], with 0.05 to 1 µM.
On the same count and under the same terms, then `O=C(Nc1ccc(S(=O)(=O)N[C@@H]2CCOC2)cc1)[C@@H]1C[C@@H](c2ccccc2)CN1C(=O)c1ccc(F)cc1` [Compound I-261], with 1 to 10 µM.

Still in this test, the particulars now being: […] recombinant USP30, 25 nM Ubiquitin-Rhodamine, fluorescence.
Take `CN1CCN(C(=O)N[C@@H](Cc2ccccc2)C(=O)Nc2cccc3c(S(=O)(=O)NC(C)(C)C)cccc23)CC1` [Compound I-198]: the IC50 is above 10 µM.
Same read-out and setting: next, `CC(C)(C)NS(=O)(=O)c1cccc2c(NC[C@H](O)[C@H](Cc3ccccc3)NC(=O)c3ccc(F)cc3)cccc12` [Compound I-211]: above 10 µM; `CN1CCC(C[C@H](NC(=O)N2CCN(C)CC2)C(=O)Nc2ccc(S(=O)(=O)NC(C)(C)C)cc2)CC1` [Compound I-218]: above 10 µM; `CN1CCN(C(=O)N[C@@H](CC2CCNCC2)C(=O)Nc2ccc(S(=O)(=O)NC(C)(C)C)cc2)CC1` [Compound I-219]: above 10 µM.
As to `CC(C)C[C@H](NC(=O)c1ccc(F)cc1)[C@@H](O)CNc1ccc(S(=O)(=O)NC(C)(C)C)cc1` [Compound I-220], the IC50 is above 10 µM.
Still for that read-out and setting: next, `Cn1cnc(CNS(=O)(=O)c2ccc(NC(=O)[C@H](Cc3ccccc3)NC(=O)c3ccc(F)cc3)cc2)c1` [Compound I-238]: below 0.05 µM.
For the compound `CC(C)(C)NS(=O)(=O)c1ccc(NC(=O)C(CC(N)=O)NC(=O)c2ccc(F)cc2)cc1` (centres unmarked) [Compound I-244], the IC50 was above 10 µM.
For `CC(C)(C)NS(=O)(=O)c1ccc(NC(=O)C2CCCCN2C(=O)c2ccc(F)cc2)cc1` (centres unmarked) [Compound I-245], the IC50 is above 10 µM.
Same read-out and setting: then `N#CC1CC[C@@H](NC(=O)[C@H](Cc2ccccc2)NC(=O)c2ccc(F)cc2)C1` (some centres unmarked) [Compound I-246], with above 10 µM; and `CC(C)C[C@H](NC(=O)c1ccc(F)cc1)C(=O)NC1CN(C(=O)OCc2ccccc2)C1` [Compound I-248], with above 10 µM.
Turning to `CC(C)C[C@H](NC(=O)c1ccccc1)C(=O)NC1CN(C#N)C1` [Compound I-249], the 50% inhibitory concentration (IC50) was below 0.05 µM.
On to `CC1(NC(=O)[C@H](Cc2ccccc2)NC(=O)c2ccc(F)cc2)CN(C#N)C1` [Compound I-250], for which the IC50 was below 0.05 µM.
For the compound `CC(C)C[C@H](NC(=O)c1ccc(F)cc1)C(=O)NC1CN(C#N)C1` [Compound I-251], the IC50 was below 0.05 µM.
Same read-out and setting: then `CC1(NC(=O)[C@H](Cc2ccccc2)NC(=O)c2ccc(F)cc2)CN(C(=O)OCc2ccccc2)C1` [Compound I-252], with above 10 µM.
Take `COc1cc(NC(=O)[C@@H]2C[C@@H](C3CCCCC3)CN2C(=O)c2ccc(F)cc2)cnc1S(=O)(=O)NC(C)(C)CO` [Compound I-256]: the IC50 is above 10 µM.

(Values after patent publication US20250162989A1, “USP30 INHIBITORS AND USES THEREOF” (Vincere Biosciences, Inc., priority 2021, published 2025).)
